Source: patent publication US20070049564A1 (Wyeth, priority 2005, published 2007)
Converted amounts (≈) assume the structure as drawn. Read-outs that look alike come from different tables or passages of the source.

Assays:
Assay in all cases: MIC, broth microdilution
S. aureus GC 1079 = details: Staphylococcus aureus
E. coli GC 2270 = details: Escherichia coli
S. epidermidis GC 4935 = details: Staphylococcus epidermidis
E. coli GC 3226 = details: Escherichia coli
E. coli GC 2272 = details: Escherichia coli
E. coli GC 6465 = details: Escherichia coli
S. aureus GC 6335 = details: Staphylococcus aureus
Description: (§1) Antimicrobial susceptibility testing. The in vitro activities of the antibiotics are determined by the broth microdilution method as recommended by the National Committee for Clinical Laboratory Standards (NCCLS) (1). Mueller-Hinton II broth (MHBII)(BBL Cockeysville, Md.) is the medium employed in the testing procedures. Microtiter plates containing serial dilutions of each antimicrobial agent are inoculated with each organism to yield the appropriate density (10^5 CFU/ml) in a 100 μl final volume. The plates are incubated for 18-22 hours at 35° C. in ambient air.
Representative compounds were first incubated in mouse serum for an hour prior to the in vitro testing against a panel of selected gram-positive and gram-negative bacteria strains. All compounds were also pre-incubated in water for an hour prior to testing as control. Representative compounds of Formula I were incubated in human serum prior to MIC determination.

E. faecalis GC 2265 = details: Enterococcus faecalis
E. faecalis GC 2267 = details: Enterococcus faecalis
S. aureus GC 6469 = details: Staphylococcus aureus
S. aureus GC 6467 = details: Staphylococcus aureus
c. albicans GC 3066 = test system: c. albicans GC 3066
E. coli GC 2203 = details: Escherichia coli
E. coli GC 2233 = details: Escherichia coli
E. coli GC 2271 = details: Escherichia coli
E. faecium GC 2243 = details: Enterococcus faecium
E. coli GC 4560 = details: Escherichia coli
S. aureus GC 1131 = details: Staphylococcus aureus
E. coli GC 1073 = details: Escherichia coli
P. aeruginosa GC 2214 = details: Pseudomonas aeruginosa
Description: as §1
Representative compounds were first incubated in mouse serum for an hour prior to the in vitro testing against a panel of selected gram-positive and gram-negative bacteria strains. All compounds were also pre-incubated in water for an hour prior to testing as control.

Work on CCCN(CC(=O)Nc1cc(N(C)C)c2c(c1O)C(=O)C1=C(O)[C@]3(O)C(=O)C(C(N)=O)=C(O)[C@@H](N(C)C)[C@@H]3C[C@@H]1C2)C(=O)OCOC(=O)c1ccsc1 [Example 27, ({[(2-{[(5aR,6aS,7S,10aS)-9-(aminocarbonyl)-4,7-bis(dimethylamino)-1,8,10a,11-tetrahydroxy-10,12-dioxo-5,5a,6,6a,7,10,10a,12-octahydrotetracen-2-yl]amino}-2-oxoethyl)(propyl)amino]carbonyl}oxy)methyl thiophene-3-carboxylate] yielded an MIC (S. aureus GC 1079; GC1079, read-out: MINIMAL INHIBITORY CONCENTRATION MIC, pre-incubated in Mouse Serum) of 1 µg/mL (≈ 1.32 µM), an MIC (S. aureus GC 1079; GC1079, read-out: MINIMAL INHIBITORY CONCENTRATION MIC, pre-incubated in Water) of 2 µg/mL (≈ 2.65 µM) and an MIC (E. coli GC 2270; GC2270, read-out: MINIMAL INHIBITORY CONCENTRATION MIC, pre-incubated in Mouse Serum) of 0.5 µg/mL (≈ 0.662 µM). The MIC (E. coli GC 2270; GC2270, read-out: MINIMAL INHIBITORY CONCENTRATION MIC, pre-incubated in Water) was 64 µg/mL (≈ 84.7 µM), the MIC (S. epidermidis GC 4935; GC4935, read-out: MINIMAL INHIBITORY CONCENTRATION MIC, pre-incubated in Mouse Serum) was 0.25 µg/mL (≈ 0.331 µM) and the MIC (S. epidermidis GC 4935; GC4935, read-out: MINIMAL INHIBITORY CONCENTRATION MIC, pre-incubated in Water) was 1 µg/mL (≈ 1.32 µM). For the same compound, the MIC (E. coli GC 3226; GC3226, read-out: MINIMAL INHIBITORY CONCENTRATION MIC, pre-incubated in Mouse Serum) was 0.5 µg/mL (≈ 0.662 µM), the MIC (E. coli GC 3226; GC3226, read-out: MINIMAL INHIBITORY CONCENTRATION MIC, pre-incubated in Water) was greater than 64 µg/mL and the MIC (E. coli GC 2272; GC2272, read-out: MINIMAL INHIBITORY CONCENTRATION MIC, pre-incubated in Mouse Serum) was 0.5 µg/mL (≈ 0.662 µM). The MIC (E. coli GC 2272; GC2272, read-out: MINIMAL INHIBITORY CONCENTRATION MIC, pre-incubated in Water) was 32 µg/mL (≈ 42.3 µM), the MIC (E. coli GC 6465; GC6465, read-out: MINIMAL INHIBITORY CONCENTRATION MIC, pre-incubated in Mouse Serum) was 4 µg/mL (≈ 5.29 µM) and the MIC (E. coli GC 6465; GC6465, read-out: MINIMAL INHIBITORY CONCENTRATION MIC, pre-incubated in Water) was greater than 64 µg/mL. For the same compound, the MIC (S. aureus GC 6335; GC6335, read-out: MINIMAL INHIBITORY CONCENTRATION MIC, pre-incubated in Mouse Serum) was 0.25 µg/mL (≈ 0.331 µM), the MIC (S. aureus GC 6335; GC6335, read-out: MINIMAL INHIBITORY CONCENTRATION MIC, pre-incubated in Water) was 0.5 µg/mL (≈ 0.662 µM) and the MIC (E. faecalis GC 2265; GC2265, read-out: MINIMAL INHIBITORY CONCENTRATION MIC, pre-incubated in Mouse Serum) was 1 µg/mL (≈ 1.32 µM). For the same compound, the MIC (E. faecalis GC 2265; GC2265, read-out: MINIMAL INHIBITORY CONCENTRATION MIC, pre-incubated in Water) was 2 µg/mL (≈ 2.65 µM), the MIC (E. faecalis GC 2267; GC2267, read-out: MINIMAL INHIBITORY CONCENTRATION MIC, pre-incubated in Mouse Serum) was 1 µg/mL (≈ 1.32 µM) and the MIC (E. faecalis GC 2267; GC2267, read-out: MINIMAL INHIBITORY CONCENTRATION MIC, pre-incubated in Water) was 2 µg/mL (≈ 2.65 µM). The MIC (S. aureus GC 6469; GC6469, read-out: MINIMAL INHIBITORY CONCENTRATION MIC, pre-incubated in Mouse Serum) was 1 µg/mL (≈ 1.32 µM), the MIC (S. aureus GC 6469; GC6469, read-out: MINIMAL INHIBITORY CONCENTRATION MIC, pre-incubated in Water) was 2 µg/mL (≈ 2.65 µM) and the MIC (S. aureus GC 6467; GC6467, read-out: MINIMAL INHIBITORY CONCENTRATION MIC, pre-incubated in Mouse Serum) was 2 µg/mL (≈ 2.65 µM). For the same compound, the MIC (S. aureus GC 6467; GC6467, read-out: MINIMAL INHIBITORY CONCENTRATION MIC, pre-incubated in Water) was 2 µg/mL (≈ 2.65 µM), the MIC (c. albicans GC 3066; Candida albicans, GC3066, read-out: MINIMAL INHIBITORY CONCENTRATION MIC) was greater than 64 µg/mL and the “MINIMAL INHIBITORY CONCENTRATION MIC” value (c. albicans GC 3066; pre-incubated in Water) was greater than 64 UG/ML. For the same compound, the MIC (E. coli GC 2203; GC2203, read-out: MINIMAL INHIBITORY CONCENTRATION MIC, pre-incubated in Mouse Serum) was 0.5 µg/mL (≈ 0.662 µM), the MIC (E. coli GC 2203; GC2203, read-out: MINIMAL INHIBITORY CONCENTRATION MIC, pre-incubated in Water) was greater than 64 µg/mL and the MIC (E. coli GC 2233; GC2233, read-out: MINIMAL INHIBITORY CONCENTRATION MIC, pre-incubated in Mouse Serum) was 0.5 µg/mL (≈ 0.662 µM). For the same compound, the MIC (E. coli GC 2233; GC2233, read-out: MINIMAL INHIBITORY CONCENTRATION MIC, pre-incubated in Water) was 64 µg/mL (≈ 84.7 µM), the MIC (E. coli GC 2271; GC2271, read-out: MINIMAL INHIBITORY CONCENTRATION MIC, pre-incubated in Mouse Serum) was 0.5 µg/mL (≈ 0.662 µM) and the MIC (E. coli GC 2271; GC2271, read-out: MINIMAL INHIBITORY CONCENTRATION MIC, pre-incubated in Water) was 64 µg/mL (≈ 84.7 µM). It also gave an MIC (E. faecium GC 2243; GC2243, read-out: MINIMAL INHIBITORY CONCENTRATION MIC, pre-incubated in Mouse Serum) of 0.12 µg/mL (≈ 0.159 µM), an MIC (E. faecium GC 2243; GC2243, read-out: MINIMAL INHIBITORY CONCENTRATION MIC, pre-incubated in Water) of 0.25 µg/mL (≈ 0.331 µM) and an MIC (E. coli GC 4560; GC4560, read-out: MINIMAL INHIBITORY CONCENTRATION MIC, pre-incubated in Mouse Serum) of 0.25 µg/mL (≈ 0.331 µM). For the same compound, the MIC (E. coli GC 4560; GC4560, read-out: MINIMAL INHIBITORY CONCENTRATION MIC, pre-incubated in Water) was 1 µg/mL (≈ 1.32 µM), the MIC (S. aureus GC 1131; GC1131, read-out: MINIMAL INHIBITORY CONCENTRATION MIC, pre-incubated in Mouse Serum) was 0.12 µg/mL (≈ 0.159 µM) and the MIC (S. aureus GC 1131; GC1131, read-out: MINIMAL INHIBITORY CONCENTRATION MIC, pre-incubated in Water) was 0.25 µg/mL (≈ 0.331 µM). For the same compound, the MIC (E. coli GC 1073; GC1073, read-out: MINIMAL INHIBITORY CONCENTRATION MIC, pre-incubated in Mouse Serum) was 0.5 µg/mL (≈ 0.662 µM), the MIC (E. coli GC 1073; GC1073, read-out: MINIMAL INHIBITORY CONCENTRATION MIC, pre-incubated in Water) was greater than 64 µg/mL and the MIC (P. aeruginosa GC 2214; GC2214, read-out: MINIMAL INHIBITORY CONCENTRATION MIC, pre-incubated in Mouse Serum) was 8 µg/mL (≈ 10.6 µM). The MIC (P. aeruginosa GC 2214; GC2214, read-out: MINIMAL INHIBITORY CONCENTRATION MIC, pre-incubated in Water) was greater than 64 µg/mL.
